Columns and labels:
855-2 cells [1] = test: cytocidal activity, MTT assay; format: cell-based, human; details: 10 μM; 100,000 cells/ml
Experimental: MTT (3-[4,5-[…]]-2,5-diphenyltetrazolium bromide) at 1 mg/ml was then added for 16 hours. The absorbance of the pelleted cell was then measured at 550 nm after adding DMSO to solubilze the cells.

calf thymus ADPRT = target: T1, calf thymus ADPRT (Bos taurus, UniProt P18493); test: ADPRT polymerase activity inhibition / inactivation; format: biochemical
T1 construct: from tissue; host or cells: calf thymus
Experimental: | Polymerization at 25° C. for 4 minutes.

K562 cells = test: [3H] thymidine uptake, K562 cells (FIG. 2D); format: cell-based, human; details: 10% fetal bovine serum
HIV-1 = test: inhibition of HIV infection, virus titer in stimulated human lymphoblasts; format: cell-based; details: 30 min exposure, day 10, virus alone 5.25
Experimental: VIII. Anti-HIV action of NOBP, NOBA and NOQ on stimulated human lymphoblasts.
Exposure to the two drugs was only for 30 minutes at the commencement of viral infection, and drugs were never re-added. The results given in Table III provide the ID50 of HIV titer 10 days after infection of cell cultures with HIV.

855-2 cells [2] = test: [3H] thymidine uptake / growth, 855-2 cells (FIG. 2A, E, F; FIG. 3); format: cell-based, human; details: for relative inhibition: 1 μM; for relative inhibition / inhibition / inhibitory effects with different growth factors: 10% fetal bovine serum; for inhibitory effects with different growth factors: AGF or BCGF
Experimental: FIGS. 2A-2F are a composite of graphs displaying the inhibitory effects of the ADRPT ligands on (FIG. 2A) 855-2 cells (a cell line of human B-cell lineage acute lymphoblastic leukemia), (FIG. 2B) H9 cells (a cell line of human T-cell lineage acute lymphoblastic leukemia), FIG. (2C) HL-60 cells (a cell line of human acute nonlymphoblastic leukemia) and (FIG. 2D) K562 cells (a cell line of human chronic myelogenous leukemia). These cells were cultured while under the influence of the growth factors in 10% fetal bovine serum (FCS), whereas in (FIG. 2E) and (FIG. 2F) the 855-2 cells were cultured in the presence of autocrine growth factor activity (AGF) or low molecular weight-B-cell growth factor (BCGF, a T-cell derived lymphokine), respectively.
Experiments using HL-60 cells (FIG. 2C) provided similar conclusions.
855-2 cells that were grown in media with (1) 10% fetal bovine serum, (2) autocrine growth factor (AGF) and (3) low molecular weight-BCGF (a T cell derived lymphokine) were exposed to increasing concentrations of the ADRPT ligands.

H9 cells = test: [3H] thymidine uptake, H9 cells (FIG. 2B); format: cell-based, human; details: 10% FCS
anti-tumor and anti-HIV = test: biological action of nitroso compounds (anti-tumor and anti-HIV, summary); format: cell-based; details: for anti-tumor and anti-HIV activity: effective even after exposure of cells as short as 30 minutes
[3] = tested on: human leukemia cell lines (855-2, H9, HL-60, K562); test: [3H] thymidine uptake, human leukemia cell lines together; format: cell-based; details: 10 μM; each of the cell lines tested
[4] = tested on: various cancer cells (855-2, HL-60, D32, D37, CRL 7712, 186 medulla, L1210, MDA-468); test: functions of various cancer cells in presence of compounds (FIGS. 4-9); format: cell-based; details: summary statement
Experimental: (§1) Experiments were performed in which the functions of various cancer cells (855-2 and HL-60 leukemia cells, D32, D37 and CRL 7712 glioblastoma cell lines, 186 medulla tumor cell line, L1210 murine leukemia cell line, MDA-468 human breast tumor cell line) and normal cells (neutrophil leukocytes and bone marrow or peripheral blood stream cells) were assessed in the absence or presence of the compounds.

855-2 leukemia cells = test: growth inhibition of 855-2 cells, comparison with vincristine (FIG. 7); format: cell-based, human
Experimental: Vincristine, a highly toxic chemotherapeutic compound, is currently used in the treatment of leukemia and other malignancies. […] Vincristine was tested in doses of 0.1, 1, 10 and 100 μM.

ADPRT = details: cited from earlier work
[5] = not told
Zn(HIV1-F1) = Zn(HIV1-F1) (Human immunodeficiency virus type 1 lw12.3 isolate, UniProt Q70622); details: cited from earlier work
[6] = tested on: normal rhesus bone marrow stem cells; test: CFU stem cell toxicity assay (FIG. 5A)
[7] = tested on: normal cells (neutrophil leukocytes and bone marrow or peripheral blood cells)
Experimental: as §1

HL-60 cells = test: colony formation (CFU) of leukemic cells in semi-solid medium (FIG. 4); format: cell-based, human
Experimental: as §1

Human Neutrophils = test: superoxide generation by human neutrophils; details: 10 μM; mean + S.D., n = 11; PMN + PMA
855-2 cells [8] = test: colony formation (CFU) of leukemic cells in semi-solid medium (FIG. 4); format: cell-based, human
Experimental: as §1

T1 sequence (P18493 whole entry): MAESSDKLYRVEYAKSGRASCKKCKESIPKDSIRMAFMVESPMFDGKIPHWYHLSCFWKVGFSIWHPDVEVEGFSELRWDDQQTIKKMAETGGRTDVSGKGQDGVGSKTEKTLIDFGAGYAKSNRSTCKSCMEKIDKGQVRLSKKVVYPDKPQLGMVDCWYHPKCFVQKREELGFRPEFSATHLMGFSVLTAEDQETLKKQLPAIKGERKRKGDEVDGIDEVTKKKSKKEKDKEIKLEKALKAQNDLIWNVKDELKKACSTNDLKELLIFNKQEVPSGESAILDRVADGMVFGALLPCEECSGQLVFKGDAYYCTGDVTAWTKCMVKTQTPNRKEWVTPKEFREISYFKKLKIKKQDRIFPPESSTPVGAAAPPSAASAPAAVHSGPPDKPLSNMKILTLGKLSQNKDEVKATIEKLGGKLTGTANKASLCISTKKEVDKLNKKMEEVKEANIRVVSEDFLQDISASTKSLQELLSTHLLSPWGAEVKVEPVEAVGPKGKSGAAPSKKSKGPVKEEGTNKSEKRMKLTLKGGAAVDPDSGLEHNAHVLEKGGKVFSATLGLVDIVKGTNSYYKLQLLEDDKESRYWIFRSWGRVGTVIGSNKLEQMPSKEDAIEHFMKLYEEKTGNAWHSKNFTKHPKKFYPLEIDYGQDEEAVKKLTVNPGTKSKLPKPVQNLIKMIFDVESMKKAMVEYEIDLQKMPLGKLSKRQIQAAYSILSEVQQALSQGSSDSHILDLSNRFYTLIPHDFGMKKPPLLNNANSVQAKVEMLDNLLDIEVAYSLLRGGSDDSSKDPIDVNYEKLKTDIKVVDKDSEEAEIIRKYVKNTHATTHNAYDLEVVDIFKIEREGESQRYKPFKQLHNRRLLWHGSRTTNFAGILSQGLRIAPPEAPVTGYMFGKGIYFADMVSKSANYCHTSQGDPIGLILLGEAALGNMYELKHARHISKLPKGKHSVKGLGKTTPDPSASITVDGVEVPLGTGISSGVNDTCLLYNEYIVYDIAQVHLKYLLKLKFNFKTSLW

Compound: 5(7)-nitroso-1(2H)-isoquinolinone [NOQ]
- cell killing (855-2 cells [1]): complete killing
- IC50 (calf thymus ADPRT; 25° C., 4 minutes, pH 7.5, read-out: I50 (concentration that inhibits ADPRT enzyme activity 50%)): 13 µM
- inhibition of cell growth (K562 cells; 10 μM): almost complete inhibition
- relative potency (K562 cells): most potent inhibitors
- Virus Titer (log ID50) (HIV-1; 10 μM): 1.73 log ID50
- relative inhibition (855-2 cells [2]): somewhat more inhibition than NOBP
- inhibition (855-2 cells [2]; 10 μM): almost complete inhibition
- inhibitory effects with different growth factors (855-2 cells [2]): potent inhibitory effects
- inhibition of thymidine uptake (H9 cells; 10 μM): almost complete inhibition
- relative potency (H9 cells): most potent inhibitor
- anti-tumor and anti-HIV activity (anti-tumor and anti-HIV): highly active
- inhibition of 3H-thymidine uptake [3]: powerfully inhibited

Compound: O=c1ccc2cc([N+](=O)[O-])ccc2o1 [NO2 BP, 6-nitro-1,2-benzopyrone, reference compound]
- Virus Titer (log ID50) (HIV-1; 250 μM): 4.93 log ID50
- effectiveness against tumor cells [4]: almost ineffective

Compound: CC[C@]1(O)C[C@H]2CN(CCc3c([nH]c4ccccc34)[C@@](C(=O)OC)(c3cc4c(cc3OC)N(C=O)[C@H]3[C@@](O)(C(=O)OC)[C@H](OC(C)=O)[C@]5(CC)C=CCN6CC[C@]43[C@@H]65)C2)C1 [vincristine, reference compound]
- concentration required for same growth inhibition as 10 μM NOBP (855-2 leukemia cells; in vitro): 100 µM

Compound: O=c1ccc2ccccc2o1 [coumarin, 1,2-benzopyrone]
- ADPRT binding (ADPRT): inhibitory ligand
- ADPRT polymerase activity inhibition (ADPRT): known to inhibit ADPRT polymerase activity

Compound: O=Nc1ccc2oc(=O)ccc2c1I [compound 6, 5-iodo-6-nitroso-1,2-benzopyrone, reference compound]
- inhibition of ADPRT (calf thymus ADPRT): relatively poor inhibitor
- permeation [5]: poor permeant molecule
- biological action, times weaker than 6-N-1,2-benzopyrone (anti-tumor and anti-HIV; relative to 6-nitroso-1,2-benzopyrone): 10 times

Compound: O=c1c(O)c(-c2ccc(O)c(O)c2)oc2cc(O)cc(O)c12 [quercetin]
- ADPRT polymerase activity inhibition (ADPRT): known to inhibit ADPRT polymerase activity

Compound: O=C(O)CN(CCN(CC(=O)O)CC(=O)O)CC(=O)O [EDTA]
- molar excess required to remove zinc from Zn(HIV1-F1) (Zn(HIV1-F1)): 10 fold

Compound: Nc1ccc2oc(=O)ccc2c1I [IABP, 5-iodo-6-amino-1,2-benzopyrone]
- Virus Titer (log ID50) (HIV-1; 250 μM): 4.66 log ID50
- CFU stem cell toxicity ([6]; 250 μM): toxic
- ADPRT polymerase activity inhibition (ADPRT): known ADPRT polymerase activity inhibitors

Compound: 3-aminonaphthylhydrazide
- ADPRT polymerase activity inhibition (ADPRT): known to inhibit ADPRT polymerase activity

Compound: c1ccc2cnccc2c1 [isoquinoline]
- ADPRT polymerase activity inhibition (ADPRT): known to inhibit ADPRT polymerase activity

Compound: Nc1ccc2oc(=O)ccc2c1 [ABP, 6-amino-1,2-benzopyrone]
- Virus Titer (log ID50) (HIV-1; 500 μM): 4.50 log ID50
- CFU stem cell toxicity ([6]; 1 μM): toxic
- ADPRT binding (ADPRT): binds specifically to ADRPT at the site that also binds to DNA

Compound: O=Nc1ccc2oc(=O)ccc2c1 [NOBP, 6-nitroso-1,2-benzopyrone]
- times more potent than vincristine (855-2 leukemia cells; equal concentration): about 10 times
- cell killing (855-2 cells [1]): complete killing
- inhibition of cell growth (K562 cells; 10 μM): almost complete inhibition
- inhibition of cell growth (K562 cells; 100 μM): almost complete inhibition
- relative potency (K562 cells): most potent inhibitors
- Virus Titer (log ID50) (HIV-1; 10 μM): 2.01 log ID50
- effectiveness against tumor cells [4]: highly effective
- relative inhibition (855-2 cells [2]): somewhat more inhibition than NOBA
- growth arrest in increasing FCS (855-2 cells [2]; 10 μM, increasing FCS concentrations): Growth arrest occurs irrespective of the concentration of FCS
- inhibition (855-2 cells [2]; 10 μM): almost complete inhibition
- inhibitory effects with different growth factors (855-2 cells [2]): potent inhibitory effects
- inhibition of thymidine uptake (H9 cells; 100 μM): almost complete inhibition
- anti-tumor and anti-HIV activity (anti-tumor and anti-HIV): highly active
- effect on colony formation by normal cells [7]: minimal effect on normal cells
- effect on viability of normal cells [7]: not to affect adversely the viability of normal cells
- toxicity to normal cells [7]: not toxic to normal cells
- inhibition of 3H-thymidine uptake [3]: powerfully inhibited
- ability to form colonies (CFU) (HL-60 cells): inhibit the ability
- Generation of Superoxide by Human Neutrophils (Human Neutrophils): 34.1 ± 14.1 nmol 02^- /hr/10^5 cells
- ability to form colonies (CFU) (855-2 cells [8]): inhibit the ability

Compound: NC(=O)c1ccccc1 [benzamide]
- ADPRT polymerase activity inhibition (ADPRT): known to inhibit ADPRT polymerase activity

Reference: patent US5482975A, “Adenosine diphosphoribose polymerase binding nitroso aromatic compounds useful as retroviral inactivating agents, anti-retroviral agents and anti-tumor agents” (priority 1993, dated 1996)
